In patent US9249127B2 (Orion Corporation, priority 2012, dated 2016):
Where a name gives a salt, the structure may show the parent alone. Read-outs that look alike come from different tables or passages of the source.

Target: T1, alpha2A receptor (Homo sapiens, UniProt P08913)
T1 sequence (P08913 1-465): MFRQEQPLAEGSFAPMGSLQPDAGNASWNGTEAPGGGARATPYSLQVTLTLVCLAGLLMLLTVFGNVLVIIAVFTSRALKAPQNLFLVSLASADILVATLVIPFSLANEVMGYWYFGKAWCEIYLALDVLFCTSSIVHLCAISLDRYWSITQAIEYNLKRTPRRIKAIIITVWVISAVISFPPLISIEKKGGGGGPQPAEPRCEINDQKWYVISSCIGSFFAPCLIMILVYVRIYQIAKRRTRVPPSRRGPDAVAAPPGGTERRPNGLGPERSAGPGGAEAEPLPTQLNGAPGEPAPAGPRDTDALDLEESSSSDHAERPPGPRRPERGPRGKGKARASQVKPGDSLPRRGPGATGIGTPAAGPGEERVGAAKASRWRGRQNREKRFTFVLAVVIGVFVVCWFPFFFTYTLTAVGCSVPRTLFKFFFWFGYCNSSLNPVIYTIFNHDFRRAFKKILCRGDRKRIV
Assay: Alpha2A agonistic activity in vitro
Assay type: cell-based

[1] = in vitro, read-out: Alpha2A Agonism pEC50 (converted)
[2] = Alpha2A Agonism pEC50, in vitro

Compound | Alpha2A Intrinsic Activity (in vitro) | EC50 [1] | EC50 [2] | Alpha2A Agonism pEC50 (in vitro) | Alpha2A Intrinsic Activity (in vitro, hydrochloride)
COc1cccc2c1C[C@H](C)OC2C1=NCCN1 (stereo partly drawn) [Example 53, 2-((3S)-5-methoxy-3-methylisochroman-1-yl)-4,5-dihydro-1H-imidazole] | 0.72 | 316 nM | – | – | –
C[C@@H]1Cc2c(F)cccc2C(C2=NCCN2)O1 (stereo partly drawn) [Example 50, 2-((3R)-5-fluoro-3-methylisochroman-1-yl)-4,5-dihydro-1H-imidazole] | 0.90 | – | 25.1 nM | – | –
Ic1cccc2c1CCOC2C1=NCCN1 (stereo not drawn) [Example 18, 2-(5-Iodoisochroman-1-yl)-4,5-dihydro-1H-imidazole] | 0.81 | – | 2 nM | – | –
CCc1cccc2c1C[C@@H](C)OC2C1=NCCN1 (stereo partly drawn) [Example 45, 2-((3R)-5-ethyl-3-methylisochroman-1-yl)-4,5-dihydro-1H-imidazole] | 0.73 | – | 6.31 nM | – | –
CCCC1Cc2c(Br)cccc2C(C2=NCCN2)O1 (single isomer, unassigned) [Example 88, 2-((3)-5-bromo-3-propylisochroman-1-yl)-4,5-dihydro-1H-imidazole] | 0.50 | – | 50.1 nM | – | –
Cc1cccc2c1CC(CCF)OC2C1=NCCN1 (stereo not drawn) [Example 81, 2-(3-(2-Fluoroethyl)-5-methylisochroman-1-yl)-4,5-dihydro-1H-imidazole] | 0.54 | 158 nM | – | – | –
CC[C@@H]1Cc2c(C)cccc2C(C2=NCCN2)O1 (stereo partly drawn) [Example 48, 2-((3R)-3-ethyl-5-methylisochroman-1-yl)-4,5-dihydro-1H-imidazole] | 0.58 | – | 25.1 nM | – | –
Cc1cc(C)c2c(c1)C(C1=NCCN1)OCC2 (stereo not drawn) [Example 59, 2-(5,7-Dimethylisochroman-1-yl)-4,5-dihydro-1H-imidazole] | 0.81 | – | 39.8 nM | – | –
CCC1Cc2c(C)cccc2C(C2=NCCN2)O1 (stereo not drawn) [Example 27, 2-(3-Ethyl-5-methylisochroman-1-yl)-4,5-dihydro-1H-imidazole] | 0.69 | – | 25.1 nM | – | –
CCc1cccc2c1C[C@@H](C)OC2(C)C1=NCCN1 (stereo partly drawn) [Example 73, 2-((3R)-5-ethyl-1,3-dimethylisochroman-1-yl)-4,5-dihydro-1H-imidazole] | 0.19 | 1580 nM | – | – | –
Fc1cccc2c1CCOC2C1=NCCN1 (stereo not drawn) [Example 42, 2-(5-Fluoroisochroman-1-yl)-4,5-dihydro-1H-imidazole] | 0.62 | – | 39.8 nM | – | –
CSc1cccc2c1CCOC2C1=NCCN1 (stereo not drawn) [Example 87, 2-(5-(Methylthio)isochroman-1-yl)-4,5-dihydro-1H-imidazole] | 0.75 | – | 63.1 nM | – | –
CCC1Cc2c(O)cccc2C(C2=NCCN2)O1 (stereo not drawn) [Example 76, 1-(4,5-Dihydro-1H-imidazol-2-yl)-3-ethylisochroman-5-ol] | 0.15 | 631 nM | – | – | –
Cc1cc(O)cc2c1CCOC2C1=NCCN1 (stereo not drawn) [Example 75, 1-(4,5-Dihydro-1H-imidazol-2-yl)-5-methylisochroman-7-ol] | 0.64 | 631 nM | – | – | –
c1cc2c3c(cccc3c1)C(C1=NCCN1)OC2 (stereo not drawn) [Example 102, 2-(1,3-Dihydrobenzo[de]isochromen-1-yl)-4,5-dihydro-1H-imidazole] | 0.82 | – | 2.51 nM | – | –
C[C@@H]1Cc2c(cccc2C(F)(F)F)C(C2=NCCN2)O1 (stereo partly drawn) [Example 19, 2-((3R)-3-methyl-5-(trifluoromethyl)isochroman-1-yl)-4,5-dihydro-1H-imidazole] | 0.81 | – | 5.01 nM | – | –
Brc1cccc2c1CCOC2C1=NCCN1 (stereo not drawn) [Example 2, 2-(5-Bromoisochroman-1-yl)-4,5-dihydro-1H-imidazole] | 0.85 | – | 15.8 nM | – | –
CCc1cccc2c1CCOC2C1=NCCN1 (stereo not drawn) [Example 8] | 0.77 | – | 39.8 nM | – | –
Cc1cccc2c1CC(C)OC2(C)C1=NCCN1 (stereo not drawn) [Example 30, 2-(1,3,5-Trimethylisochroman-1-yl)-4,5-dihydro-1H-imidazole] | 0.60 | 794 nM | – | – | –
CC1(C2=NCCN2)OCCc2c(Br)cccc21 (stereo not drawn) [Example 11, 2-(5-Bromo-1-methylisochroman-1-yl)-4,5-dihydro-1H-imidazole] | 0.83 | – | 100 nM | – | –
CC1(C2=NCCN2)OCCc2c(C(O)C(C)(C)C)cccc21 (single isomer, unassigned) [Example 13, 1-(1-(4,5-Dihydro-1H-imidazol-2-yl)-1-methylisochroman-5-yl)-2,2-dimethylpropan-1-ol] | 0.66 | 1260 nM | – | – | –

Compound | Alpha2A Intrinsic Activity (in vitro) | EC50 [1] | EC50 [2] | Alpha2A Agonism pEC50 (in vitro) | Alpha2A Intrinsic Activity (in vitro, hydrochloride)
CC[C@@H]1Cc2c(Cl)cccc2C(C2=NCCN2)O1 (stereo partly drawn) [Example 12, 2-((3R)-5-chloro-3-ethylisochroman-1-yl)-4,5-dihydro-1H-imidazole] | 0.94 | 1580 nM | – | – | –
2-(5-methoxy-3-(2,2,2-trifluoroethyl)methyl-isochroman-1-yl)-4,5-dihydro-1H-imidazole [Example 77] | 0.16 | – | – | 6.3 | –
CC(C)c1cccc2c1CCOC2C1=NCCN1 (stereo not drawn) [Example 41, 2-(5-Isopropylisochroman-1-yl)-4,5-dihydro-1H-imidazole] | 0.27 | 251 nM | – | – | –
COc1cccc2c1CCOC2C1=NCCN1 (single isomer, unassigned) [Example 82, 2-(5-methoxyisochroman-1-yl)-4,5-dihydro-1H-imidazole] | 0.52 | 158 nM | – | – | –
Cc1cccc2c1CCOC2C1=NCCN1 (stereo not drawn) [Example 1, 2-(5-Methylisochroman-1-yl)-4,5-dihydro-1H-imidazole] | 0.89 | – | 3.98 nM | – | –
Cc1cccc2c1CCOC2(C)C1=NCCN1 (stereo not drawn) [Example 3, 2-(1,5-Dimethylisochroman-1-yl)-4,5-dihydro-1H-imidazole] | 0.95 | – | 63.1 nM | – | –
Oc1cccc2c1CCOC2C1=NCCN1 (stereo not drawn) [Example 9, 1-(4,5-Dihydro-1H-imidazol-2-yl)isochroman-5-ol] | 0.73 | 200 nM | – | – | –
FC(F)(F)CC1Cc2c(Br)cccc2C(C2=NCCN2)O1 (single isomer, unassigned) [Example 83] | 0.41 | 126 nM | – | – | –
COc1cc(C)c2c(c1)C(C1=NCCN1)OC(C)C2 (stereo not drawn) [Example 85, 2-(7-Methoxy-3,5-dimethylisochroman-1-yl)-4,5-dihydro-1H-imidazole] | 0.22 | 1000 nM | – | – | –
Cc1cccc2c1CC(CC(F)F)OC2C1=NCCN1 (single isomer, unassigned) [Example 89, 2-((3-(2,2-difluoroethyl)-5-methylisochroman-1-yl)-4,5-dihydro-1H-imidazole hydrochloride] | – | – | 39.8 nM | – | 0.33
CC1(C2=NCCN2)OCCc2c(C(O)C(C)(C)C)cccc21 (single isomer, unassigned) [Example 14, 1-(1-(4,5-Dihydro-1H-imidazol-2-yl)-1-methylisochroman-5-yl)-2,2-dimethylpropan-1-ol] | 0.43 | 3160 nM | – | – | –
COc1cccc2c1CCOC2C1=NCCN1 (stereo not drawn) [Example 17, 2-(5-Methoxyisochroman-1-yl)-4,5-dihydro-1H-imidazole] | 0.81 | 25.1 nM | – | – | –
CC1Cc2c(Br)cccc2C(C)(C2=NCCN2)O1 (stereo not drawn) [Example 31, 2-(5-Bromo-1,3-dimethylisochroman-1-yl)-4,5-dihydro-1H-imidazole] | 0.43 | 1260 nM | – | – | –
Cc1cccc2c1CC(CC(F)(F)F)OC2C1=NCCN1 (stereo not drawn) [Example 52, 2-(5-Methyl-3-(2,2,2-trifluoroethyl)isochroman-1-yl)-4,5-dihydro-1H-imidazole] | 0.41 | 100 nM | – | – | –
C[C@H]1Cc2c(Br)cccc2C(C2=NCCN2)O1 (stereo partly drawn) [Example 35, 2-((3S)-5-bromo-3-methylisochroman-1-yl)-4,5-dihydro-1H-imidazole] | 0.80 | – | 15.8 nM | – | –
CCOc1cccc2c1CCOC2C1=NCCN1 (stereo not drawn) [Example 51, 2-(5-Ethoxyisochroman-1-yl)-4,5-dihydro-1H-imidazole] | 0.26 | 631 nM | – | – | –
C=Cc1cccc2c1CCOC2C1=NCCN1 (stereo not drawn) [Example 7, 2-(5-Vinylisochroman-1-yl)-4,5-dihydro-1H-imidazole] | 0.81 | – | 39.8 nM | – | –
CCC1Cc2c(Br)cc(Br)cc2C(C2=NCCN2)O1 (stereo not drawn) [Example 67, 2-(5,7-Dibromo-3-ethylisochroman-1-yl)-4,5-dihydro-1H-imidazole] | 0.42 | 1000 nM | – | – | –
Cc1cccc2c1C[C@@H](C)OC2C1=NCCN1 (stereo partly drawn) [Example 36, 2-((3R)-3,5-dimethylisochroman-1-yl)-4,5-dihydro-1H-imidazole] | 0.90 | – | 1.58 nM | – | –
CC1Cc2c(Br)cccc2C(C2=NCCN2)S1 (stereo not drawn) [Example 63, 2-(5-Bromo-3-methylisothiochroman-1-yl)-4,5-dihydro-1H-imidazole] | 0.85 | 3160 nM | – | – | –
Cc1cccc2c1CCSC2(C)C1=NCCN1 (stereo not drawn) [Example 78, 2-(1,5-Dimethylisothiochroman-1-yl)-4,5-dihydro-1H-imidazole] | 0.62 | 501 nM | – | – | –
